Counter-ions that a name gives are not always drawn. Like-named read-outs stand apart in the source and are kept apart here.
What was measured:
hCA I = target: T1, hCA I (Homo sapiens, UniProt P00915); test: CA esterase activity assay, isozyme hCA I; assay type: biochemical; settings: Table 3; human (cloned) isozymes, esterase assay method; read-out: KI hCA I
T1 construct: made in house; host or cells: Escherichia coli BL21 (DE3)
Experimental: Human CA I and CA II cDNAs were expressed in Escherichia coli strain BL21 (DE3) from the plasmids pACA/hCA I and pACA/hCA II described by Lindskog's group [54].
Non-enzymatic hydrolysis rates were always subtracted from the observed rates. […] Inhibitor and enzyme solutions were preincubated together for 10 min at room temperature prior to assay, in order to allow for the formation of the E-I complex. The inhibition constant KI was determined as described in references [44, 76].

hCA IX = hCA IX (Homo sapiens, UniProt Q16790); test: CA CO2 hydrase activity assay, tumor-associated isozyme hCA IX
Experimental: An SX.18MV-R Applied Photophysics stopped-flow instrument has been used for assaying the CA CO2 hydration activity assays [44]. […] Inhibitor and enzyme solutions were preincubated together for 10 min at room temperature prior to assay, in order to allow for the formation of the E-I complex.

bCA IV = target: T2, bCA IV (Bos taurus, UniProt Q95323); test: CA esterase activity assay, isozyme bCA IV; assay type: biochemical, bovine; settings: Table 3
T2 construct: CA IV was isolated from bovine lung microsomes as described by Maren et al; from tissue; host or cells: bovine lung microsomes
T2 sequence (Q95323 19-284): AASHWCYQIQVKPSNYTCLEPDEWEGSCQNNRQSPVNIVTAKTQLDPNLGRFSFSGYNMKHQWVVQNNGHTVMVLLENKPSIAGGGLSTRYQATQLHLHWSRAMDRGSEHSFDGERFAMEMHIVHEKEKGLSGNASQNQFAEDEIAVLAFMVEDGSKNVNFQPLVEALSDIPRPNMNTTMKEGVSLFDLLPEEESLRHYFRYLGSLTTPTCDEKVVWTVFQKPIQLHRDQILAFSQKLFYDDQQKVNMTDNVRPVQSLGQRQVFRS

hCA II = target: T3, hCA II (Homo sapiens, UniProt P00918); test: CA esterase activity assay, isozyme hCA II; assay type: biochemical
T3 construct: made in house; host or cells: Escherichia coli BL21 (DE3)

human red cells = settings: for [sulfonamide] in red blood cells, EI / [sulfonamide] in red blood cells, ES / [sulfonamide] in red blood cells, HPLC: human, 2 mM, pH 7.4
[1] = read-out: KI hCA IX, Table 3, catalytic domain of the human, cloned isozyme, CO2 hydrase assay method
[2] = from bovine lung microsomes, esterase assay method, read-out: KI bCA IV
[3] = Table 3, human (cloned) isozymes, esterase assay method, read-out: KI hCA II
[4] = Tables 1 and 3, read-out: KI against CA II

T1 sequence (P00915 whole entry): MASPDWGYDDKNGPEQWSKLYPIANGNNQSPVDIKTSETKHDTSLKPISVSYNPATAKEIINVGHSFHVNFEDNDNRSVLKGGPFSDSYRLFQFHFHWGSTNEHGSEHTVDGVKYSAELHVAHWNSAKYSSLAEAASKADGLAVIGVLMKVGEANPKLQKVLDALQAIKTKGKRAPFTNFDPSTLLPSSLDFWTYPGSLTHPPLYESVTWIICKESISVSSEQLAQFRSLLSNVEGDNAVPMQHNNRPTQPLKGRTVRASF

**Q.** With `Cc1cc(C)[n+](-c2ccc(S(=O)(=O)Nc3nnc(S(N)(=O)=O)s3)cc2)c(C)c1` (as salt: perchlorate) [Compound 71, 1-N-[5-Sulfamoyl-1,3,4-thiadiazol-2-yl-(aminosulfonyl-4-phenyl)]-2,4,6-trimethyl-pyridinium perchlorate] as the molecule, how does the melting point read?
**A.** > 300 °C

**Q.** Which melting point does the source give for `Cc1cc(C(C)C)[n+](-c2ccc(S(=O)(=O)Nc3nnc(S(N)(=O)=O)s3)cc2)c(C(C)C)c1` (as salt: perchlorate) [Compound 73, 1-N-[5-Sulfamoyl-1,3,4-thiadiazol-2-yl-(aminosulfonyl-4-phenyl)]-2,6-di-iso-propyl-4-methylpyridinium perchlorate] here?
**A.** 278 to 279 °C

**Q.** For `Cc1cc(-c2ccccc2)cc(C)[n+]1-c1ccc(S(=O)(=O)Nc2nnc(S(N)(=O)=O)s2)cc1` (as salt: perchlorate) [Compound 75, 1-N-[5-Sulfamoyl-1,3,4-thiadiazol-2-yl-(aminosulfonyl-4-phenyl)]-2,6-dimethyl-4-phenylpyridinium perchlorate], which melting point is on record?
**A.** > 300 °C

**Q.** For `CCc1cc(-c2ccccc2)cc(CC)[n+]1-c1ccc(S(=O)(=O)Nc2nnc(S(N)(=O)=O)s2)cc1` (as salt: perchlorate) [Compound 76, 1-N-[5-Sulfamoyl-1,3,4-thiadiazol-2-yl-(aminosulfonyl-4-phenyl)]-2,6-diethyl-4-phenylpyridinium perchlorate], which melting point is on record?
**A.** 267 to 268 °C

**Q.** For `CCCc1cc(-c2ccccc2)cc(CCC)[n+]1-c1ccc(S(=O)(=O)Nc2nnc(S(N)(=O)=O)s2)cc1` (as salt: perchlorate) [Compound 77, 1-N-[5-Sulfamoyl-1,3,4-thiadiazol-2-yl-(aminosulfonyl-4-phenyl)]-2,6-di-n-propyl-4-phenylpyridinium perchlorate], which melting point is on record?
**A.** 235 to 237 °C

**Q.** For `CC(C)c1cc(-c2ccccc2)cc(C(C)C)[n+]1-c1ccc(S(=O)(=O)Nc2nnc(S(N)(=O)=O)s2)cc1` (as salt: perchlorate) [Compound 79, 1-N-[5-Sulfamoyl-1,3,4-thiadiazol-2-yl-(aminosulfonyl-4-phenyl)]-2,6-di-isopropyl-4-phenylpyridinium perchlorate], which melting point is on record?
**A.** 278 to 279 °C

**Q.** With `Cc1cc(-c2ccccc2)cc(-c2ccccc2)[n+]1-c1ccc(S(=O)(=O)Nc2nnc(S(N)(=O)=O)s2)cc1` (as salt: perchlorate) [Compound 80, 1-N-[5-Sulfamoyl-1,3,4-thiadiazol-2-yl-(aminosulfonyl-4-phenyl)]-2-methyl-4,6-diphenylpyridinium perchlorate] as the molecule, how does the melting point read?
**A.** 298 to 299 °C

**Q.** With `CCc1cc(-c2ccccc2)cc(-c2ccccc2)[n+]1-c1ccc(S(=O)(=O)Nc2nnc(S(N)(=O)=O)s2)cc1` (as salt: perchlorate) [Compound 81, 1-N-[5-Sulfamoyl-1,3,4-thiadiazol-2-yl-(aminosulfonyl-4-phenyl)]-2-ethyl-4,6-diphenylpyridinium perchlorate] as the molecule, how does the melting point read?
**A.** 254 to 255 °C

**Q.** Which melting point does the source give for `CCCc1cc(-c2ccccc2)cc(-c2ccccc2)[n+]1-c1ccc(S(=O)(=O)Nc2nnc(S(N)(=O)=O)s2)cc1` (as salt: perchlorate) [Compound 82, 1-N-[5-Sulfamoyl-1,3,4-thiadiazol-2-yl-(aminosulfonyl-4-phenyl)]-2-n-propyl-4,6-diphenylpyridinium perchlorate] here?
**A.** 214 to 215 °C

**Q.** Which melting point does the source give for `CC(C)c1cc(-c2ccccc2)cc(-c2ccccc2)[n+]1-c1ccc(S(=O)(=O)Nc2nnc(S(N)(=O)=O)s2)cc1` (as salt: perchlorate) [Compound 83, 1-N-[5-Sulfamoyl-1,3,4-thiadiazol-2-yl-(aminosulfonyl-4-phenyl)]-2-iso-propyl-4,6-diphenylpyridinium perchlorate] here?
**A.** 186 to 188 °C

**Q.** With `CCCCc1cc(-c2ccccc2)cc(-c2ccccc2)[n+]1-c1ccc(S(=O)(=O)Nc2nnc(S(N)(=O)=O)s2)cc1` (as salt: perchlorate) [Compound 84, 1-N-[5-Sulfamoyl-1,3,4-thiadiazol-2-yl-(aminosulfonyl-4-phenyl)]-2-n-butyl-4,6-diphenylpyridinium perchlorate] as the molecule, how does the melting point read?
**A.** 241 to 243 °C

**Q.** For `Cc1cc(C)[n+](-c2ccc(S(=O)(=O)Nc3nnc(S(N)(=O)=O)s3)cc2)c(C)c1` [Compound 71, 1-N-[5-Sulfamoyl-1,3,4-thiadiazol-2-yl-(aminosulfonyl-4-phenyl)]-2,4,6-trimethyl-pyridinium perchlorate], which Ki (hCA I) is on record?
**A.** 4 nM

**Q.** What about the Ki (hCA IX) of the same molecule?
**A.** 3 to 9 nM

**Q.** And the “times more effective than benzolamide in inhibiting CA IX” value (hCA IX; ratio of KI values)?
**A.** ~13

**Q.** What about the Ki (hCA IX; [1]) of the same molecule?
**A.** 3 nM

**Q.** And the Ki (bCA IV; [2])?
**A.** 2.1 nM

**Q.** And the Ki (hCA II; [3])?
**A.** 0.26 nM

**Q.** What about the Ki (hCA II; read-out: KI against CA II) of the same molecule?
**A.** 0.2 to 1.61 nM

**Q.** And the “amount detected within the blood red cells (membrane penetration)” value (human red cells)?
**A.** detected only in very small amounts

**Q.** And the “[sulfonamide] in red blood cells, EI” value (human red cells; 30 min)?
**A.** 0.5 µM

**Q.** What about the “[sulfonamide] in red blood cells, ES” value (human red cells; 30 min) of the same molecule?
**A.** 0.5 µM

**Q.** And the “[sulfonamide] in red blood cells, HPLC” value (human red cells; 30 min)?
**A.** 0.3 µM

**Q.** And the “[sulfonamide] in red blood cells, EI” value (human red cells; 60 min)?
**A.** 0.3 µM

**Q.** What about the “[sulfonamide] in red blood cells, ES” value (human red cells; 60 min) of the same molecule?
**A.** 0.5 µM

**Q.** And the “[sulfonamide] in red blood cells, HPLC” value (human red cells; 60 min)?
**A.** 0.4 µM

**Q.** Which Ki (hCA I) does the source give for `CCc1cc(-c2ccccc2)cc(CC)[n+]1-c1ccc(S(=O)(=O)Nc2nnc(S(N)(=O)=O)s2)cc1` [Compound 76, 1-N-[5-Sulfamoyl-1,3,4-thiadiazol-2-yl-(aminosulfonyl-4-phenyl)]-2,6-diethyl-4-phenylpyridinium perchlorate] here?
**A.** 4 nM

**Q.** And the Ki (hCA IX)?
**A.** 3 to 9 nM

**Q.** And the Ki (hCA IX; [1])?
**A.** 9 nM

**Q.** And the Ki (bCA IV; [2])?
**A.** 2.3 nM

**Q.** And the Ki (hCA II; [3])?
**A.** 0.21 nM

**Q.** What about the Ki (hCA II; [4]) of the same molecule?
**A.** 0.2 to 1.61 nM

**Q.** And the “amount detected within the blood red cells (membrane penetration)” value (human red cells)?
**A.** detected only in very small amounts

**Q.** What about the “[sulfonamide] in red blood cells, EI” value (human red cells; 30 min) of the same molecule?
**A.** 1.0 µM

**Q.** And the “[sulfonamide] in red blood cells, ES” value (human red cells; 30 min)?
**A.** 1.1 µM

**Q.** And the “[sulfonamide] in red blood cells, HPLC” value (human red cells; 30 min)?
**A.** 1.0 µM

**Q.** What about the “[sulfonamide] in red blood cells, EI” value (human red cells; 60 min) of the same molecule?
**A.** 1.1 µM

**Q.** And the “[sulfonamide] in red blood cells, ES” value (human red cells; 60 min)?
**A.** 1.2 µM

**Q.** And the “[sulfonamide] in red blood cells, HPLC” value (human red cells; 60 min)?
**A.** 1.1 µM

**Q.** With `NS(=O)(=O)c1nnc(NS(=O)(=O)c2ccc(-[n+]3c(-c4ccccc4)cccc3-c3ccccc3)cc2)s1` [Compound 88, 1-N-[5-Sulfamoyl-1,3,4-thiadiazol-2-yl-(aminosulfonyl-4-phenyl)]-2,6-diphenylpyridinium perchlorate] as the molecule, how does the Ki (hCA I) read?
**A.** 5 nM

**Q.** What about the Ki (hCA IX) of the same molecule?
**A.** 12 to 35 nM

**Q.** And the Ki (hCA IX; [1])?
**A.** 16 nM

**Q.** What about the Ki (bCA IV; [2]) of the same molecule?
**A.** 5.4 nM

**Q.** And the Ki (bCA IV; read-out: KI against CA IV)?
**A.** 5.2 to 10.3 nM

**Q.** What about the Ki (hCA II; [3]) of the same molecule?
**A.** 4.93 nM

**Q.** What about the Ki (hCA II; [4]) of the same molecule?
**A.** 3.13 to 5.96 nM

**Q.** Which Ki (hCA I) does the source give for `Cc1cc(C)[n+](-c2ccc(S(=O)(=O)Nc3nnc(S(N)(=O)=O)s3)cc2)c(C)c1C` [Compound 89, 1-N-[5-Sulfamoyl-1,3,4-thiadiazol-2-yl-(aminosulfonyl-4-phenyl)]-2,3,4,6-tetramethylpyridinium perchlorate] here?
**A.** 3 nM

**Q.** What about the Ki (hCA IX) of the same molecule?
**A.** 3 to 9 nM

**Q.** And the Ki (hCA IX; [1])?
**A.** 5 nM

**Q.** And the Ki (bCA IV; [2])?
**A.** 2.4 nM

**Q.** And the Ki (hCA II; [3])?
**A.** 0.3 nM

**Q.** And the “amount detected within the blood red cells (membrane penetration)” value (human red cells)?
**A.** detected only in very small amounts

**Q.** What about the “[sulfonamide] in red blood cells, EI” value (human red cells; 30 min) of the same molecule?
**A.** 0.5 µM

**Q.** What about the “[sulfonamide] in red blood cells, ES” value (human red cells; 30 min) of the same molecule?
**A.** 0.2 µM

**Q.** What about the “[sulfonamide] in red blood cells, HPLC” value (human red cells; 30 min) of the same molecule?
**A.** 0.3 µM

**Q.** What about the “[sulfonamide] in red blood cells, EI” value (human red cells; 60 min) of the same molecule?
**A.** 0.4 µM

**Q.** And the “[sulfonamide] in red blood cells, ES” value (human red cells; 60 min)?
**A.** 0.6 µM

**Q.** What about the “[sulfonamide] in red blood cells, HPLC” value (human red cells; 60 min) of the same molecule?
**A.** 0.3 µM

**Q.** What does the source list for `Cc1c(-c2ccccc2)cc(C)[n+](-c2ccc(S(=O)(=O)Nc3nnc(S(N)(=O)=O)s3)cc2)c1C` [Compound 90]?
**A.** Ki (hCA I): 3 nM; Ki (hCA IX; KI against CA IX, text discussion of Tables 1-3): 12 to 35 nM; Ki (hCA IX; [1]): 15 nM; Ki (bCA IV; [2]): 5.2 nM; Ki (bCA IV; read-out: KI against CA IV): 5.2 to 10.3 nM; Ki (hCA II; [3]): 1.24 nM

Source: US8628771B2, “CA IX-specific inhibitors” (Institute of Virology Slovak Academy of Sciences, priority 2002, dated 2014)
